The values below come from publication PMC7920811 (Neoplasia (New York, N.Y.), 2021).

For the assay, the target named is STAT3 (Homo sapiens, UniProt P40763). As to the kind of experiment: label-free microscale thermophoresis. In kind it is binding. (In general: MST reads how a fluorescent partner responds to local heating, with and without ligand.)
STAT3, sequence (P40763 2-770): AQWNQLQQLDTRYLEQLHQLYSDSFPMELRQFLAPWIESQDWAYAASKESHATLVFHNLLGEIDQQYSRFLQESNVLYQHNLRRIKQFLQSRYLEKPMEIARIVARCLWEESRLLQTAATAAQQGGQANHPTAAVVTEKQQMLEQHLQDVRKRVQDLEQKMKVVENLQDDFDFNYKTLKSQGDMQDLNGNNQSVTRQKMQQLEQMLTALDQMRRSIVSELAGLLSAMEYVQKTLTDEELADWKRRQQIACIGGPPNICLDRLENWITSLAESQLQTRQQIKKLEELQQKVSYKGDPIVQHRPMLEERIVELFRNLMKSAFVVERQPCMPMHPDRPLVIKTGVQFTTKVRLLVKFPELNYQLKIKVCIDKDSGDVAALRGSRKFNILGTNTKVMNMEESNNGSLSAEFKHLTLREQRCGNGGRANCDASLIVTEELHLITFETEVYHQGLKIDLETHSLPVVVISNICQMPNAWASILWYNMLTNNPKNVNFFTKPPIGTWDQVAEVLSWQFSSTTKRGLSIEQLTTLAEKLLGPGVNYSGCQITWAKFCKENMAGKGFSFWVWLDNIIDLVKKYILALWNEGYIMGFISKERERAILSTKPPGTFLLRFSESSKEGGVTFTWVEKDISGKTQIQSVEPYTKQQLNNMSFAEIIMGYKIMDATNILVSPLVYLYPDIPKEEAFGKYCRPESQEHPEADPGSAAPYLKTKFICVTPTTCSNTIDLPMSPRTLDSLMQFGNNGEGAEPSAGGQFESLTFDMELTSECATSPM

As usually defined, the Kd is the concentration at which binding is half-saturated. Higher therefore signals weaker binding. `CC(=O)Nc1ccc(O)cc1` [AAP, acetaminophen] registered a dissociation constant (Kd) of 600 ± 400 nM.
